According to US8476197B2, “Aminopropenoates as fungicides” (priority 2009, dated 2013):
Marks after values point to notes of the source that are not given here.

conditions: pH 2.7

Compound | Log P
CCOC(=O)C(C#N)=C(NC(C)C1CCCO1)c1sccc1C(F)(F)F (mixture of isomers) [Compound 172] | 3.55^[a]
COC(=O)C(C#N)=C(NC(C)C1CCCO1)c1sc(C)nc1C(F)(F)F (mixture of isomers) [Compound 178] | 1.97^[a]
CCOC(=O)C(C#N)=C(NC(C)C1CCCO1)c1sccc1Br (mixture of isomers) [Compound 186] | 3.35^[a]
CCOC(=O)C(C#N)=C(NC(C)c1ccc(Cl)s1)c1cccnc1Cl (mixture of isomers) [Compound 281] | 3.8^[a]
CCOC(=O)C(C#N)=C(NC(C)c1nc(C(C)C)no1)c1cccnc1Cl (mixture of isomers) [Compound 282] | 3.2^[a]
CCOC(=O)C(C#N)=C(NC(C)CN1CCCC1)c1cccnc1Cl (mixture of isomers) [Compound 283] | 3.35^[a]
CCOC(=O)C(C#N)=C(NC(C)c1ccc(C(F)(F)F)cn1)c1cccnc1Cl (mixture of isomers) [Compound 285] | 3.5^[a]
CCOC(=O)C(C#N)=C(NC(C)c1ncc(Br)cc1Cl)c1cccnc1Cl (mixture of isomers) [Compound 287] | 3.9^[a]
CCOC(=O)C(C#N)=C(NC(C)c1ncc(C(F)(F)F)cc1Cl)c1cccnc1Cl (mixture of isomers) [Compound 288] | 3.9^[a]
CCOC(=O)C(C#N)=C(NC(C)c1ccccn1)c1ccnc(Cl)c1Cl (mixture of isomers) [Compound 289] | 3.04^[a]
CCOC(=O)C(C#N)=C(NC(C)c1cscn1)c1ccnc(Cl)c1Cl (mixture of isomers) [Compound 290] | 2.92^[a]
CCOC(=O)C(C#N)=C(NC(C)c1nccs1)c1ccnc(Cl)c1Cl (mixture of isomers) [Compound 291] | 2.96^[a]
CCOC(=O)C(C#N)=C(NC(C)c1ccccn1)c1cccnc1Cl (mixture of isomers) [Compound 292] | 2.5^[a]
CCOC(=O)C(C#N)=C(NC(C)Cc1nccs1)c1cccnc1Cl (mixture of isomers) [Compound 294] | 2.4^[a]
CCOC(=O)C(C#N)=C(NC(C)Cc1ccccn1)c1cccnc1Cl (mixture of isomers) [Compound 295] | 1.82^[a]
CCOC(=O)C(C#N)=C(NC(C)Cc1cccnc1)c1cccnc1Cl (mixture of isomers) [Compound 296] | 1.57^[a]
CCOC(=O)C(C#N)=C(NC(C)c1nccs1)c1ccncc1Br (mixture of isomers) [Compound 297] | 2.4^[a]
CCOC(=O)C(C#N)=C(NC(C)c1cscn1)c1ccncc1Br (mixture of isomers) [Compound 298] | 2.4^[a]
CCOC(=O)C(C#N)=C(NC(C)c1ccccn1)c1ccncc1Br (mixture of isomers) [Compound 299] | 2.5^[a]
CCOC(=O)C(C#N)=C(NC(C)c1ccccn1)c1ccncc1F (mixture of isomers) [Compound 300] | 2.28^[a]
CCOC(=O)C(C#N)=C(NC(C)c1cscn1)c1ccncc1F (mixture of isomers) [Compound 301] | 2.22^[a]
CCOC(=O)C(C#N)=C(NC(C)Cc1nccs1)c1ccncc1F (mixture of isomers) [Compound 302] | 2.19^[a]
CCOC(=O)C(C#N)=C(NC(C)c1cscn1)c1ccncc1C(F)(F)F (mixture of isomers) [Compound 303] | 2.6^[a]
C=CCOC(=O)C(C#N)=C(NC(C)c1nccs1)c1cn(C)nc1C(F)F (mixture of isomers) [Compound 305] | 2.59^[a]
C=CCOC(=O)C(C#N)=C(NC(C)c1ccccn1)c1cn(C)nc1C(F)F (mixture of isomers) [Compound 307] | 2.56^[a]
CCOC(=O)C(C#N)=C(NC(C)c1nccs1)c1c(C(F)(F)F)nn(C)c1F (mixture of isomers) [Compound 308] | 3.09^[a]
CCOC(=O)C(C#N)=C(NC(C)c1nccs1)c1c(C(F)F)nn(C)c1F (mixture of isomers) [Compound 309] | 2.73^[a]

Compound | Log P
CCOC(=O)C(C#N)=C(NC(C)c1ccccn1)c1c(C(F)(F)F)nn(C)c1F (mixture of isomers) [Compound 310] | 3.12^[a]
CCOC(=O)C(C#N)=C(NC(C)c1ccc(F)cc1)c1sccc1C(F)(F)F (mixture of isomers) [Compound 438] | 4.14^[a]
CCOC(=O)C(C#N)=C(NC(C)c1ccc(C)cc1)c1sccc1C(F)(F)F (mixture of isomers) [Compound 439] | 4.54^[a]
CCOC(=O)C(C#N)=C(NC(C)c1ccccc1)c1sccc1C(F)(F)F (mixture of isomers) [Compound 440] | 4.16^[a]
COC(=O)C(C#N)=C(NC(C)CCc1ccccc1)c1sc(C)nc1C(F)(F)F (mixture of isomers) [Compound 441] | 4.01^[a]
COC(=O)C(C#N)=C(NC(C)c1ccc(F)cc1)c1sc(C)nc1C(F)(F)F (mixture of isomers) [Compound 442] | 3.64^[a]
COC(=O)C(C#N)=C(NC(C)c1ccc(C)cc1)c1sc(C)nc1C(F)(F)F (mixture of isomers) [Compound 443] | 4.01^[a]
COC(=O)C(C#N)=C(NC(C)c1ccccc1)c1sc(C)nc1C(F)(F)F (mixture of isomers) [Compound 444] | 3.62^[a]
CCOC(=O)C(C#N)=C(NC(C)CCc1ccccc1)c1sccc1Br (mixture of isomers) [Compound 445] | 4.51^[a]
CCOC(=O)C(C#N)=C(NC(C)c1ccc(F)cc1)c1sccc1Br (mixture of isomers) [Compound 446] | 4.06^[a]
CCOC(=O)C(C#N)=C(NC(C)c1ccc(C)cc1)c1sccc1Br (mixture of isomers) [Compound 447] | 4.49^[a]
CCOC(=O)C(C#N)=C(NC(C)c1ccccc1)c1sccc1Br (mixture of isomers) [Compound 448] | 4.09^[a]
CCOC(=O)C(C#N)=C(NC(C)CCc1ccccc1)c1sc(C)nc1C(F)(F)F (mixture of isomers) [Compound 449] | 4.36^[a]
CCOC(=O)C(C#N)=C(NC(C)c1ccc(F)cc1)c1sc(C)nc1C(F)(F)F (mixture of isomers) [Compound 450] | 3.96^[a]
CCOC(=O)C(C#N)=C(NC(C)c1ccc(C)cc1)c1sc(C)nc1C(F)(F)F (mixture of isomers) [Compound 451] | 4.36^[a]
CCOC(=O)C(C#N)=C(NC(C)c1ccccc1)c1sc(C)nc1C(F)(F)F (mixture of isomers) [Compound 452] | 3.99^[a]
CCOC(=O)C(C#N)=C(NC(C)CCc1ccccc1)c1cn(C)nc1C(F)F (mixture of isomers) [Compound 453] | 3.62^[a]
CCOC(=O)C(C#N)=C(NC(C)c1ccc(F)cc1)c1cn(C)nc1C(F)F (mixture of isomers) [Compound 454] | 3.21^[a]
CCOC(=O)C(C#N)=C(NC(C)c1ccc(C)cc1)c1cn(C)nc1C(F)F (mixture of isomers) [Compound 455] | 3.51^[a]
CCOC(=O)C(C#N)=C(NC(C)c1ccccc1)c1cn(C)nc1C(F)F (mixture of isomers) [Compound 456] | 3.17^[a]
CCOC(=O)C(C#N)=C(NC(C)c1ccc(Cl)cc1)c1cn(C)nc1C(C)F (mixture of isomers) [Compound 520] | 3.64^[a]
CC(C)C(C)NC(=C(C#N)C(=O)NC1CC1(C)C)c1cccnc1Cl (mixture of isomers) [Compound 1495] | 3.72^[a]
CCOC(=O)C(C#N)=C(NC(C)C(C)OC)c1cnn(C)c1Cl (mixture of isomers) [Compound 1543] | 2.67^[a]
CCOC(=O)C(C#N)=C(NC(C)C(C)CC)c1cnn(C)c1Cl (mixture of isomers) [Compound 1544] | 3.6^[a]
CCOC(=O)C(C#N)=C(NC(C)c1nc(C)c(C)s1)c1cn(C)nc1C(F)F (racemic) [Compound 33] | 2.96^[a]
CCOC(=O)C(C#N)=C(NC(C)c1nccs1)c1cn(C)nc1C(F)F (racemic) [Compound 34] | 2.4^[a]

same assay, conditions: pH 7.5

Compound | Log P
CC(NC(=C(C#N)C(=O)OC(C)C(F)(F)F)c1cccnc1Cl)c1nccs1 (mixture of isomers) [Compound 56] | 2.94
CCOC(=O)C(C#N)=C(NC(C)c1nc(C(=O)N(C)C)cs1)c1cccnc1Cl (mixture of isomers) [Compound 304] | 2.08
CCOC(=O)C(C#N)=C(NC(C)CCc1c(Cl)cccc1Cl)c1cccnc1Cl (mixture of isomers) [Compound 429] | 4.62
CCOC(=O)C(C#N)=C(NC(C)CSC)c1ccc(C)nc1Cl (mixture of isomers) [Compound 633] | 3.09
CCOC(=O)C(C#N)=C(NC(C)C(F)(F)F)c1cccnc1Cl (mixture of isomers) [Compound 806] | 2.9
C=CCOC(=O)C(C#N)=C(NC(C)C1CC1)c1cccnc1Cl (mixture of isomers) [Compound 906] | 3.08
CCOC(=O)C(C#N)=C(NC(C)C1CC1)c1cccnc1Cl (mixture of isomers) [Compound 913] | 2.9
CCOC(=O)C(C#N)=C(NC(C)C1CC1)c1ccc(Cl)nc1Cl (mixture of isomers) [Compound 914] | 3.54
COC(=O)C(C#N)=C(NC(C)C(C)(C)C)c1cccnc1Cl (mixture of isomers) [Compound 916] | 3.14
CCOC(=O)C(C#N)=C(NC1CCCCC1O)c1cccnc1Cl (mixture of isomers) [Compound 1064] | 2.27
CC(NC(=C(C#N)C(=O)OC1CCC1)c1cccnc1Cl)C1CC1 (mixture of isomers) [Compound 1245] | 3.46
COC(=O)C(C#N)=C(NC(C)C1CC1)c1cccnc1Cl (mixture of isomers) [Compound 1307] | 2.58
CCOC(=O)C(C#N)=C(NC(C)C=NOC)c1cccnc1Cl (mixture of isomers) [Compound 1322] | 2.49
CCOC(=O)C(C#N)=C(NC(C)CCCC(C)C)c1cccnc1Cl (mixture of isomers) [Compound 1582] | 4.47
